Results: publication doi:10.1101/211839v1 (biorxiv, 2017)

Experiments:
HDAC11 (untagged) [1] = target: T1, HDAC11 (untagged) (Homo sapiens, UniProt Q96DB2); experiment: end-point fluorescence demyristoylase assay, trypsin release of AMC; format: biochemical
T1 sequence (Q96DB2 1-347): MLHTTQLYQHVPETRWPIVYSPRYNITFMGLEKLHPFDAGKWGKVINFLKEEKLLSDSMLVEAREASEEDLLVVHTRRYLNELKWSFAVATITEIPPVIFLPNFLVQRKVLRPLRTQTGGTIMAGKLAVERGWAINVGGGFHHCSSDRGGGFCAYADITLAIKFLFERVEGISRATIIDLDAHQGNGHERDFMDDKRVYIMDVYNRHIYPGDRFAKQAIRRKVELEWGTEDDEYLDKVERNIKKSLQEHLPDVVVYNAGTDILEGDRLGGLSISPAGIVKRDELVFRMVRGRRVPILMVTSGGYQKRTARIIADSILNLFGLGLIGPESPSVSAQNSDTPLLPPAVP

HDAC11 (untagged) [2] = target: T1, HDAC11 (untagged); experiment: continuous fluorescence assay, trypsin-coupled, initial rates; format: biochemical; settings: […] enzyme, HEPES pH […], no BSA, […] °C

Row | IC50 (HDAC11 (untagged) [1]) [µM] | Km (HDAC11 (untagged) [2]) [µM] | Compound
1 | > 100 |  | C/C=C1\NC(=O)[C@H]2CSSCC/C=C/[C@H](CC(=O)N[C@H](C(C)C)C(=O)N2)OC(=O)[C@H](C(C)C)NC1=O [romidepsin]
2 |  | 60 | Ac-ETDKmyr-AMC [6e]
